Measurements: PubChem BioAssay AID256 (DTP/NCI, 2004)
“And” between values parts separate entries of the source, which are not always exact repeats. Equal values may be shown once. Toxic doses and inconclusive results are not listed.

Tested on: CD2F1 mice, L1210 leukemia ip, survival T/C
Experiment: NCI In Vivo Anticancer Drug Screen. Data for tumor model L1210 Leukemia (intraperitoneal) in CD2F1 (CDF1) mice
Settings: higher = longer survival
Outline: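 Antitumor effect is scored in animals hosting a serially transplanted tumor. Values compare compound-dosed animals against vehicle-only controls as a simple quotient.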

[1] = endpoint: mean survival time, dose: 100.0 mg/kg/injection, schedule: Q01DX001 (ip), vehicle: saline
[2] = endpoint: mean survival time, dose: 200.0 mg/kg/injection, schedule: Q01DX001 (ip), vehicle: saline
[3] = endpoint: mean survival time, dose: 400.0 mg/kg/injection, schedule: Q01DX001 (ip), vehicle: saline
[4] = endpoint: mean survival time, dose: 100.0 mg/kg/injection, schedule: Q01DX001 (ip), vehicle: saline with Tween-80
[5] = endpoint: mean survival time, dose: 100.0 mg/kg/injection, schedule: Q01DX009 (ip), vehicle: saline with Tween-80
[6] = endpoint: mean survival time, dose: 200.0 mg/kg/injection, schedule: Q01DX001 (ip), vehicle: saline with Tween-80
[7] = endpoint: mean survival time, dose: 200.0 mg/kg/injection, schedule: Q01DX009 (ip), vehicle: saline with Tween-80
[8] = endpoint: mean survival time, dose: 400.0 mg/kg/injection, schedule: Q01DX001 (ip), vehicle: saline with Tween-80
[9] = endpoint: mean survival time, dose: 400.0 mg/kg/injection, schedule: Q01DX009 (ip), vehicle: saline with Tween-80
[10] = endpoint: mean survival time, dose: 25.0 mg/kg/injection, schedule: Q01DX009 (ip), vehicle: saline with Tween-80
[11] = endpoint: mean survival time, dose: 50.0 mg/kg/injection, schedule: Q01DX009 (ip), vehicle: saline with Tween-80
[12] = endpoint: mean survival time, dose: 100.0 mg/kg/injection, schedule: Q04DX002 (ip), vehicle: saline with Tween-80
[13] = endpoint: mean survival time, dose: 200.0 mg/kg/injection, schedule: Q04DX002 (ip), vehicle: saline with Tween-80
[14] = endpoint: mean survival time, dose: 400.0 mg/kg/injection, schedule: Q04DX002 (ip), vehicle: saline with Tween-80
[15] = endpoint: mean survival time, dose: 6.25 mg/kg/injection, schedule: Q01DX009 (ip), vehicle: saline with Tween-80
[16] = endpoint: mean survival time, dose: 12.5 mg/kg/injection, schedule: Q01DX009 (ip), vehicle: saline with Tween-80
[17] = endpoint: mean survival time, dose: 100.0 mg/kg/injection, schedule: Q04DX003 (ip), vehicle: saline with Tween-80
[18] = endpoint: mean survival time, dose: 200.0 mg/kg/injection, schedule: Q04DX003 (ip), vehicle: saline with Tween-80
[19] = endpoint: mean survival time, dose: 400.0 mg/kg/injection, schedule: Q04DX003 (ip), vehicle: saline with Tween-80

CCN(Cc1cnc2nc(N)nc(N)c2n1)c1ccc(C(=O)NC(CCC(=O)O)C(=O)O)cc1 (stereo unspecified)
T/C (endpoint: mean survival time, dose: 2.5 mg/kg/injection, schedule: Q01DX009 (ip), vehicle: sodium bicarbonate): 172 % of control | T/C (endpoint: mean survival time, dose: 5.0 mg/kg/injection, schedule: Q01DX009 (ip), vehicle: sodium bicarbonate): 174 % of control | T/C (endpoint: mean survival time, dose: 6.25 mg/kg/injection, schedule: Q01DX009 (ip), vehicle: sodium bicarbonate): 89 % of control | T/C (endpoint: mean survival time, dose: 10.0 mg/kg/injection, schedule: Q01DX009 (ip), vehicle: sodium bicarbonate): 217 % of control | T/C (endpoint: mean survival time, dose: 12.5 mg/kg/injection, schedule: Q01DX009 (ip), vehicle: sodium bicarbonate): 92 % of control

NC1CC(CO)C(O)C1O (stereo unspecified)
T/C (endpoint: mean survival time, dose: 75.0 mg/kg/injection, schedule: Q01DX001 (ip), vehicle: saline): 101 % of control | T/C (endpoint: mean survival time, dose: 150.0 mg/kg/injection, schedule: Q01DX001 (ip), vehicle: saline): 103 % of control | T/C (endpoint: mean survival time, dose: 300.0 mg/kg/injection, schedule: Q01DX001 (ip), vehicle: saline): 107 % of control

Cn1c(=O)c2c(ncn2-c2ccncc2)n(C)c1=O
T/C (endpoint: mean survival time, dose: 12.5 mg/kg/injection, schedule: Q01DX005 (ip), vehicle: saline with Tween-80): 93 % of control | T/C (endpoint: mean survival time, dose: 25.0 mg/kg/injection, schedule: Q01DX005 (ip), vehicle: saline with Tween-80): 98 % of control | T/C (endpoint: mean survival time, dose: 50.0 mg/kg/injection, schedule: Q01DX005 (ip), vehicle: saline with Tween-80): 96 % of control | T/C (endpoint: mean survival time, dose: 100.0 mg/kg/injection, schedule: Q01DX005 (ip), vehicle: saline with Tween-80): 104 % of control

Brc1cnc2n[nH]nc2c1
T/C [1]: 109 % of control | T/C [2]: 97 % of control | T/C [3]: 97 % of control

O=CC(Cc1ccccc1)CC(O)c1ccccc1 (stereo unspecified)
T/C [4]: 95 % of control | T/C [5]: 107 % of control | T/C [6]: 88 % of control | T/C [7]: 96 % of control | T/C [8]: 91 % of control | T/C [9]: 96 % of control

Cc1ncc(CO)c(C2NOCc3ccc(Cl)cc32)c1O (stereo unspecified)
T/C (endpoint: mean survival time, dose: 25.0 mg/kg/injection, schedule: Q01DX009 (ip), vehicle: Klucel (hydroxypropylcellulose) (HPC)): 96 % of control | T/C (endpoint: mean survival time, dose: 50.0 mg/kg/injection, schedule: Q01DX009 (ip), vehicle: Klucel (hydroxypropylcellulose) (HPC)): 98 % of control

CCOC(=O)Nc1nccs1
T/C [10]: 98 % of control | T/C [11]: 100 % of control | T/C [5]: 98 % of control | T/C (endpoint: mean survival time, dose: 100.0 mg/kg/injection, schedule: Q04DX003 (ip), vehicle: Klucel (hydroxypropylcellulose) (HPC)): 101 % of control | T/C (endpoint: mean survival time, dose: 200.0 mg/kg/injection, schedule: Q04DX003 (ip), vehicle: Klucel (hydroxypropylcellulose) (HPC)): 97 % of control

CCCCCOC(=O)COc1ccc(F)cc1
T/C [12]: 97 % of control | T/C [13]: 105 % of control | T/C [14]: 101 % of control

O=S(=O)(Oc1ccc(OS(=O)(=O)c2ccccc2)cc1)c1ccccc1
T/C [5]: 96 % of control | T/C [7]: 98 % of control | T/C [9]: 107 % of control

CC1C(c2ccccc2)OC(N2CCOCC2)C(C)(C)CN1C (stereo unspecified)
T/C (endpoint: median survival time, dose: 50.0 mg/kg/injection, schedule: Q01DX009 (ip), vehicle: saline with Tween-80): 100 % of control | T/C (endpoint: median survival time, dose: 100.0 mg/kg/injection, schedule: Q01DX009 (ip), vehicle: saline with Tween-80): 102 % of control | T/C (endpoint: median survival time, dose: 200.0 mg/kg/injection, schedule: Q01DX009 (ip), vehicle: saline with Tween-80): 102 % of control | T/C (endpoint: median survival time, dose: 400.0 mg/kg/injection, schedule: Q01DX009 (ip), vehicle: saline with Tween-80): 97 % of control

BrC1c2cccc3cccc(c23)C1Br (stereo unspecified)
T/C [15]: 115 % of control | T/C [16]: 108 % of control | T/C [10]: 115 % of control and 106 % of control | T/C [11]: 115 % of control and 105 % of control | T/C [5]: 100 % of control and 112 % of control | T/C [7]: 110 % of control

NC1CCCCC1N.O=C1C=CC(=C(c2ccc(O)cc2)c2ccccc2S(=O)(=O)[O-])C=C1.O=[N+]([O-])[O-].[Pt+4]
T/C (endpoint: median survival time, dose: 1.56 mg/kg/injection, schedule: Q04DX003 (ip), vehicle: saline): 170 % of control | T/C (endpoint: median survival time, dose: 3.12 mg/kg/injection, schedule: Q04DX003 (ip), vehicle: saline with Tween-80): 361 % of control | T/C (endpoint: median survival time, dose: 3.12 mg/kg/injection, schedule: Q04DX003 (ip), vehicle: saline): 353 % of control | T/C (endpoint: median survival time, dose: 6.25 mg/kg/injection, schedule: Q04DX003 (ip), vehicle: saline with Tween-80): 361 % of control | T/C (endpoint: median survival time, dose: 6.25 mg/kg/injection, schedule: Q04DX003 (ip), vehicle: saline): 243 % of control | T/C (endpoint: median survival time, dose: 12.5 mg/kg/injection, schedule: Q04DX003 (ip), vehicle: saline): 365 % of control

CC(O)(c1ccccc1)C(CCl)N1CCCCC1 (stereo unspecified)
T/C [11]: 95 % of control | T/C [5]: 97 % of control | T/C [7]: 91 % of control

O=c1[nH]c(C(Cl)(Cl)Cl)nc2ccc(Cl)cc12
T/C [17]: 101 % of control | T/C [18]: 96 % of control | T/C [19]: 98 % of control

CCOc1ccc(Br)cc1/C=N/NS(=O)(=O)c1ccc(C)cc1
T/C [10]: 111 % of control | T/C [11]: 114 % of control | T/C [5]: 113 % of control

Cc1ccc2c(c1)N=C(Nc1ccccc1)N=S2(C)=O (stereo unspecified)
T/C [15]: 96 % of control and 104 % of control | T/C [16]: 100 % of control and 107 % of control | T/C [10]: 104 % of control | T/C [11]: 90 % of control and 106 % of control | T/C [5]: 101 % of control | T/C [7]: 102 % of control

O=C(NC1CCCC2CCCCC21)c1ccccc1 (stereo unspecified)
T/C [4]: 90 % of control | T/C [6]: 88 % of control | T/C [8]: 90 % of control

O=C(C[n+]1cccc(C(=O)Nc2ccccc2)c1)NCc1ccccc1
T/C (endpoint: mean survival time, dose: 100.0 mg/kg/injection, schedule: Q04DX003 (ip), vehicle: saline): 100 % of control | T/C (endpoint: mean survival time, dose: 200.0 mg/kg/injection, schedule: Q04DX003 (ip), vehicle: saline): 96 % of control | T/C (endpoint: mean survival time, dose: 400.0 mg/kg/injection, schedule: Q04DX003 (ip), vehicle: saline): 96 % of control

CC(C)(C)[Si](C)(C)N1CCCOP1(=O)N(CCCl)CCCl (stereo unspecified)
T/C (endpoint: mean survival time, dose: 15.6 mg/kg/injection, schedule: Q01DX001 (ip), vehicle: distilled water + Tween-80): 98 % of control | T/C (endpoint: mean survival time, dose: 31.3 mg/kg/injection, schedule: Q01DX001 (ip), vehicle: distilled water + Tween-80): 102 % of control | T/C (endpoint: mean survival time, dose: 62.5 mg/kg/injection, schedule: Q01DX001 (ip), vehicle: distilled water + Tween-80): 96 % of control | T/C (endpoint: mean survival time, dose: 125.0 mg/kg/injection, schedule: Q01DX001 (ip), vehicle: distilled water + Tween-80): 108 % of control | T/C (endpoint: mean survival time, dose: 250.0 mg/kg/injection, schedule: Q01DX001 (ip), vehicle: distilled water + Tween-80): 101 % of control | T/C (endpoint: mean survival time, dose: 500.0 mg/kg/injection, schedule: Q01DX001 (ip), vehicle: distilled water + Tween-80): 104 % of control

CC1(CCC2(C)OCCO2)OCCO1
T/C [12]: 93 % of control | T/C [13]: 101 % of control | T/C [14]: 93 % of control

COC(=O)C(Cl)c1ccccc1 (stereo unspecified)
T/C [5]: 95 % of control | T/C [7]: 100 % of control | T/C [9]: 97 % of control

O=C1C(c2ccccc2)=C(c2ccccc2)C2=CC(c3ccccc3)=C(c3ccccc3)C(c3ccccc3)C12Br (stereo unspecified)
T/C [17]: 90 % of control | T/C [18]: 90 % of control | T/C [19]: 89 % of control

OCCNc1c(Cl)ccc(Cl)c1Cl
T/C [11]: 107 % of control | T/C [5]: 103 % of control | T/C [7]: 98 % of control

O=C(O)CCSc1ccc2c(c1)CCCC2
T/C (endpoint: mean survival time, dose: 100.0 mg/kg/injection, schedule: Q01DX009 (ip), vehicle: Klucel (hydroxypropylcellulose) (HPC)): 101 % of control | T/C (endpoint: mean survival time, dose: 200.0 mg/kg/injection, schedule: Q01DX009 (ip), vehicle: Klucel (hydroxypropylcellulose) (HPC)): 98 % of control

CCCCSc1cc(C)nc2ccccc12
T/C [12]: 96 % of control

O=c1nc(Nc2ccccc2)ccn1C1OC(CO)C(O)C1O (stereo unspecified)
T/C (endpoint: mean survival time, dose: 100.0 mg/kg/injection, schedule: Q01DX005 (ip), vehicle: distilled water + Tween-80): 98 % of control | T/C (endpoint: mean survival time, dose: 200.0 mg/kg/injection, schedule: Q01DX005 (ip), vehicle: distilled water + Tween-80): 107 % of control | T/C (endpoint: mean survival time, dose: 400.0 mg/kg/injection, schedule: Q01DX005 (ip), vehicle: distilled water + Tween-80): 110 % of control

COc1ccc2c(c1O)CNCC2O (stereo unspecified)
T/C [1]: 102 % of control | T/C [2]: 101 % of control | T/C [3]: 101 % of control

CCCCNC(C)(C)C(S)c1ccc(Cl)cc1 (stereo unspecified)
T/C (endpoint: mean survival time, dose: 12.0 mg/kg/injection, schedule: Q04DX003 (ip), vehicle: other): 96 % of control | T/C (endpoint: mean survival time, dose: 25.0 mg/kg/injection, schedule: Q04DX003 (ip), vehicle: other): 105 % of control | T/C (endpoint: mean survival time, dose: 50.0 mg/kg/injection, schedule: Q04DX003 (ip), vehicle: other): 94 % of control
